Reference: US11382956B2, “Amylin analogues” (Zealand Pharma A/S, priority 2016, dated 2022)
Numbered stars: 1 amine (or outer) side, 2 acyl side, 3 side chain; on linkers, the order of the positions; unused ones are H or OH. Bridge positions count the residues as written; N and C are the ends. Square brackets hold non-standard residues; d marks the D form. Peptide text beside a SMILES is read from it. * marks the point of attachment. C20 diacid = O=C(O)CCCCCCCCCCCCCCCCCCC(=O)*; γGlu = O=C(O)[C@H](CCC(=O)[*:2])N[*:1]; Hyp = O=C(O)[C@@H]1C[C@@H](O)CN1; NMeI = CC[C@H](C)[C@H](NC)C(=O)O; Aad = N[C@@H](CCCC(=O)O)C(=O)O; Orn = NCCC[C@H](N)C(=O)O; Sar = CNCC(=O)O

What was measured:
[1] = target: T1, recombinant human calcitonin receptor (hCT-R) (Homo sapiens, UniProt P30988); test: hCT-R cAMP assay (AlphaScreen) in 1321N1 cells; format: cell-based; details: cAMP formation, 45 min stimulation
T1 construct: host or cells: human astrocytoma cell line 1321N1
T1 sequence (P30988 25-474): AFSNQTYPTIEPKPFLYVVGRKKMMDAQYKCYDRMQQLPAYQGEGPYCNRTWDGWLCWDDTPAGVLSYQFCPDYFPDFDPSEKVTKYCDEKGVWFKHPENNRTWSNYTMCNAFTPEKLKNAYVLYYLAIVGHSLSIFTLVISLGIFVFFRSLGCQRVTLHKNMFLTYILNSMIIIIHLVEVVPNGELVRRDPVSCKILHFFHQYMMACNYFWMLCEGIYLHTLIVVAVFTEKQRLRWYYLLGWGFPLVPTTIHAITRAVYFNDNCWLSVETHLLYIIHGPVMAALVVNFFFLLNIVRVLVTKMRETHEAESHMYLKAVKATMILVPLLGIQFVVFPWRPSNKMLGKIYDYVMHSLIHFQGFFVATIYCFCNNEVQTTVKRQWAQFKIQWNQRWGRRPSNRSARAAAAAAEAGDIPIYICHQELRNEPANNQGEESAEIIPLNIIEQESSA
In short: (§1)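 1321N1 astrocytoma cells expressing recombinant human calcitonin receptor alone or with RAMP3 (AMY3) stimulated 45 min at room temperature with peptide in IBMX-containing buffer. cAMP quantified by AlphaScreen after 1 h bead incubation; EC50 fitted from at least 7 concentrations.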

[2] = Assessment of chemical stability in 40 mM buffers at 40° C. (RP-HPLC); format: physicochemical; details: 1 mg/mL; for % degradation after 72 h at 40° C. pH4 acetate: acetate buffer pH 4, 72 h; for % degradation after 72 h at 40° C. pH6 phosphate: phosphate buffer pH 6, 72 h; for % degradation after 14 days at 40° C. pH6 phosphate: phosphate buffer pH 6, 14 days; for % degradation after 72 h at 40° C. pH7 phosphate: phosphate buffer pH 7, 72 h; for % degradation after 14 days at 40° C. pH7 phosphate: phosphate buffer pH 7, 14 days; for % degradation after 14 days at 40° C. pH4 acetate: acetate buffer pH 4, 14 days
In short: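 Peptides at 1 mg/mL in 40 mM acetate pH 4 or phosphate pH 6 and 7 were held at 40° C for 3 and 14 days. Main-peak area-% by C8 RP-HPLC, UV 220 nm; % degradation = change in main-peak area-% versus t=0.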

[3] = Pharmacokinetic (PK) profiling in rats; details: male, Sprague Dawley, plasma; rat, single sc bolus 30 nmol/kg; read-out: in vivo half life t1/2 (plasma terminal elimination half-life) (converted)
Protocol: Sprague Dawley male rats were given a single subcutaneous (sc) bolus of each peptide to be tested, as specified below.
30 nmol/kg doses of compound were administered. Blood samples were drawn from the tail vein prior to dosing and at 24 and 96 hours after dosing. The rats were euthanized immediately after the last blood sampling by concussion and cervical dislocation.
The dosing vehicle used for each test peptide was a mannitol-containing histidine buffer (pH 7.0). Plasma samples were analyzed after precipitation with ethanol by liquid chromatography mass spectrometry (LC-MS/MS). Mean plasma concentrations were used for calculation of the pharmacokinetic parameters.
Plasma terminal elimination half-life (t1/2) was determined as In(2)/λz, where λz is the magnitude of the slope of the log linear regression of the log concentration versus time profile during the terminal phase.

[4] = Assessment of physical stability: fibril formation by Thioflavin T fluorescence; format: physicochemical; design: key: FND = fibrillation not detected; FD = fibrillation detected; details: 1 mg/mL peptide; for Fibrillation (in buffer) pH4 acetate: 50 mM acetate buffer pH 4.0, 96 hours at 40° C.; for Fibrillation (in buffer) pH7 histidine: 50 mM histidine buffer pH 7.0, 96 hours at 40° C.; for Fibrillation (in buffer) pH7 phosphate: 50 mM phosphate buffer pH 7.0, 96 hours at 40° C.
In short: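 Test peptide at 1 mg/mL with 40 μM ThT in 50 mM phosphate pH 7.0, 50 mM histidine pH 7.0, or 50 mM acetate pH 4.0, in triplicate. Fluorescence read every 10 min after 300 s agitation for 96 hours at 40° C; significant intensity rise scored as fibrillation detected (FD).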

[5] = target: T2, recombinant human amylin 3 receptor (hAMYR3) (Homo sapiens, UniProt O60896+P30988); test: hAMYR3 cAMP assay (AlphaScreen) in 1321N1 cells; format: cell-based; details: cAMP formation, 45 min stimulation
T2 construct: host or cells: human astrocytoma cell line 1321N1
T2 sequence (P30988 25-474): T1 sequence (P30988 25-474)
T2 sequence (O60896 24-148 partner): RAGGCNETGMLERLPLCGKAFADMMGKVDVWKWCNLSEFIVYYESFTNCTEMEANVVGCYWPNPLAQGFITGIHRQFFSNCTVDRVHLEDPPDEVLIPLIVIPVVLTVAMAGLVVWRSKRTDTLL
In short: as §1

[6] = Effect on acute food intake and body weight in normal Sprague Dawley rats; format: in vivo, Sprague Dawley (SD) rats; details: Dose: 30 nmol/kg sc, vehicle-corrected

CC[C@H](C)[C@@H](C(=O)N[C@@H](CC(C)C)C(=O)N[C@@H](CO)C(=O)N[C@@H](CO)C(=O)N[C@H](C(=O)N[C@@H](CCC(=O)O)C(=O)N[C@H](C(=O)NCC(=O)N[C@@H](CO)C(=O)N[C@@H](CC(N)=O)C(=O)N[C@H](C(=O)N1C[C@H](O)C[C@H]1C(N)=O)[C@@H](C)O)C(C)C)[C@@H](C)O)N(C)C(=O)[C@H](C)NC(=O)CN(C)C(=O)[C@H](Cc1ccccc1)NC(=O)[C@H](CO)NC(=O)[C@H](CO)NC(=O)[C@H](CCCNC(=N)N)NC(=O)[C@H](CCC(N)=O)NC(=O)[C@H](CC(C)C)NC(=O)[C@H](Cc1ccccc1)NC(=O)[C@H](CCCC(=O)O)NC(=O)[C@H](C)NC(=O)[C@H](CC(C)C)NC(=O)[C@H](CCCNC(=N)N)NC(=O)[C@H](CCC(=O)O)NC(=O)[C@@H](NC(=O)[C@H](C)NC(=O)[C@@H]1CCCNC(=O)C[C@H](NC(=O)[C@H](CCCNC(=N)N)NC(=O)CC[C@H](NC(=O)CCCCCCCCCCCCCCCCCCC(=O)O)C(=O)O)C(=O)NCC(=O)N[C@@H]([C@@H](C)O)C(=O)N[C@@H](C)C(=O)N[C@@H]([C@@H](C)O)C(=O)N1)[C@@H](C)O [Compound 20, [19CD]-isoGlu-RD()GTAT-Orn()-ATERLA-Aad-FLQRSSF-Gly(Me)-A-Ile(Me)-LSSTEVGSNT-Hyp-NH2] ({C20 diacid-γGlu}-RDGTAT[Orn]ATERLA[Aad]FLQRSSF[Sar]A[NMeI]LSSTEVGSNT[Hyp]-NH2; lactam 2-7)
EC50 [1]: 0.009 nM | % degradation after 72 h at 40° C. pH4 acetate [2]: 1.0% | % degradation after 72 h at 40° C. pH6 phosphate [2]: 1.3% | % degradation after 14 days at 40° C. pH6 phosphate [2]: <1% | % degradation after 72 h at 40° C. pH7 phosphate [2]: 2.0% | % degradation after 14 days at 40° C. pH7 phosphate [2]: 3.7% | half-life [3]: 1870 min | Fibrillation (in buffer) pH4 acetate [4]: FD | Fibrillation (in buffer) pH7 histidine [4]: FND | Fibrillation (in buffer) pH7 phosphate [4]: FND | EC50 [5]: 0.003 nM | Body weight reduction in % at 48 h [6]: 7.8% | Food intake reduction in % at 48 h [6]: 49%

CC[C@H](C)[C@@H](C(=O)N[C@@H](CC(C)C)C(=O)N[C@@H](CO)C(=O)N[C@@H](CO)C(=O)N[C@H](C(=O)N[C@@H](CCC(=O)O)C(=O)N[C@H](C(=O)NCC(=O)N[C@@H](CO)C(=O)N[C@@H](CC(N)=O)C(=O)N[C@H](C(=O)N1C[C@H](O)C[C@H]1C(N)=O)[C@@H](C)O)C(C)C)[C@@H](C)O)N(C)C(=O)[C@H](C)NC(=O)CN(C)C(=O)[C@H](Cc1ccccc1)NC(=O)[C@H](CO)NC(=O)[C@H](CO)NC(=O)[C@H](CCCNC(=N)N)NC(=O)[C@H](CCC(N)=O)NC(=O)[C@H](CC(C)C)NC(=O)[C@H](Cc1ccccc1)NC(=O)[C@H](Cc1c[nH]cn1)NC(=O)[C@H](C)NC(=O)[C@H](CC(C)C)NC(=O)[C@H](CCCNC(=N)N)NC(=O)[C@H](CCC(=O)O)NC(=O)[C@@H](NC(=O)[C@H](C)NC(=O)[C@@H]1CCCCNC(=O)C[C@H](NC(=O)[C@H](CCCNC(=N)N)NC(=O)CC[C@H](NC(=O)CCCCCCCCCCCCCCCCCCC(=O)O)C(=O)O)C(=O)NCC(=O)N[C@@H]([C@@H](C)O)C(=O)N[C@@H](C)C(=O)N[C@@H]([C@@H](C)O)C(=O)N1)[C@@H](C)O [Compound 18, [19CD]-isoGlu-RD()GTATK()ATERLAHFLQRSSF-Gly(Me)-A-Ile(Me)-LSSTEVGSNT-Hyp-NH2] ({C20 diacid-γGlu}-RDGTATKATERLAHFLQRSSF[Sar]A[NMeI]LSSTEVGSNT[Hyp]-NH2; lactam 2-7)
EC50 [1]: 0.085 nM | % degradation after 72 h at 40° C. pH4 acetate [2]: <1% | % degradation after 14 days at 40° C. pH4 acetate [2]: <1% | % degradation after 72 h at 40° C. pH6 phosphate [2]: <1% | % degradation after 14 days at 40° C. pH6 phosphate [2]: 1.0% | % degradation after 72 h at 40° C. pH7 phosphate [2]: <1% | % degradation after 14 days at 40° C. pH7 phosphate [2]: 1.9% | half-life [3]: 1810 min | Fibrillation (in buffer) pH4 acetate [4]: FND | Fibrillation (in buffer) pH7 histidine [4]: FND | Fibrillation (in buffer) pH7 phosphate [4]: FND | EC50 [5]: 0.031 nM | Body weight reduction in % at 48 h [6]: 10% | Food intake reduction in % at 48 h [6]: 58%

CC[C@H](C)[C@@H](C(=O)N[C@@H](CC(C)C)C(=O)N[C@@H](CO)C(=O)N[C@@H](CO)C(=O)N[C@H](C(=O)N[C@@H](CCC(=O)O)C(=O)N[C@H](C(=O)NCC(=O)N[C@@H](CO)C(=O)N[C@@H](CC(N)=O)C(=O)N[C@H](C(=O)N1C[C@H](O)C[C@H]1C(N)=O)[C@@H](C)O)C(C)C)[C@@H](C)O)N(C)C(=O)[C@H](C)NC(=O)CN(C)C(=O)[C@H](Cc1ccccc1)NC(=O)[C@H](CO)NC(=O)[C@H](CO)NC(=O)[C@H](CCCNC(=N)N)NC(=O)[C@H](CCC(N)=O)NC(=O)[C@H](CC(C)C)NC(=O)[C@H](Cc1ccccc1)NC(=O)[C@H](Cc1c[nH]cn1)NC(=O)[C@H](C)NC(=O)[C@H](CC(C)C)NC(=O)[C@H](CCCNC(=N)N)NC(=O)[C@H](CCC(=O)O)NC(=O)[C@@H](NC(=O)[C@H](C)NC(=O)[C@@H]1CCCNC(=O)C[C@H](NC(=O)[C@H](CCCNC(=N)N)NC(=O)CC[C@H](NC(=O)CC[C@H](NC(=O)CCCCCCCCCCCCCCCCCCC(=O)O)C(=O)O)C(=O)O)C(=O)NCC(=O)N[C@@H]([C@@H](C)O)C(=O)N[C@@H](C)C(=O)N[C@@H]([C@@H](C)O)C(=O)N1)[C@@H](C)O [Compound 4, [19CD]-isoGlu-isoGlu-RD()GTAT-Orn()-ATERLAHFLQRSSF-Gly(Me)-A-Ile(Me)-LSSTEVGSNT-Hyp-NH2] ({C20 diacid-γGlu-γGlu}-RDGTAT[Orn]ATERLAHFLQRSSF[Sar]A[NMeI]LSSTEVGSNT[Hyp]-NH2; lactam 2-7)
EC50 [1]: 0.16 nM | % degradation after 72 h at 40° C. pH4 acetate [2]: <1% | % degradation after 14 days at 40° C. pH4 acetate [2]: 1.6% | % degradation after 72 h at 40° C. pH6 phosphate [2]: <1% | % degradation after 14 days at 40° C. pH6 phosphate [2]: <1% | % degradation after 72 h at 40° C. pH7 phosphate [2]: <1% | % degradation after 14 days at 40° C. pH7 phosphate [2]: 6.4% | half-life [3]: 1910 min | Fibrillation (in buffer) pH4 acetate [4]: FND | Fibrillation (in buffer) pH7 histidine [4]: FND | Fibrillation (in buffer) pH7 phosphate [4]: FND | EC50 [5]: 0.092 nM | Body weight reduction in % at 48 h [6]: 4.6% | Food intake reduction in % at 48 h [6]: 34%
